Experimental data as given in patent US20230270773A1, “METHODS OF TREATING CANCER WITH A STING AGONIST” (Immunesensor Therapeutics, Inc., priority 2019, published 2023).
Entries after “also recorded” stand apart in the source; their conditions may differ.

Experiments:
4T1 (breast cancer) = test: 4T1 PD-L1 antibody-resistant tumor model; assay type: in vivo, BALB/c mice
Description: (§1) Compound A was evaluated alone and in combination with 200 µg of the PD-L1 antibody used in Example 6 in immune checkpoint blockade-resistant tumors. In these studies, mice were implanted with LL2 (lung cancer), 4T1 (breast cancer), AG104Ld (fibrosarcoma), and AG104A (fibrosarcoma) tumors. Following implantation, the animals were dosed intratumorally or subcutaneously with 0.5 mg/kg of Compound A alone or in combination with the PD-L1 antibody, as shown in the table below: […]

AG104A fibrosarcoma = test: Abscopal effect, AG104A fibrosarcoma bilateral tumor model; assay type: in vivo, C3B6F1 mice; conditions: intratumoral into primary tumor, PD-L1 antibody 200 µg
Description: C3B6F1 mice (N=8) bearing AG104A tumors on both left and right flanks were treated intratumorally on the right flank (primary) with Compound A on Days 5, 8, 11, and 15 after tumor inoculation. Tumors on the left flank (distant) were not treated.
An abscopal effect is an immune-mediated phenomenon wherein direct treatment of a primary tumor can lead to a response in a distant tumor. The potential abscopal effect of Compound A was evaluated in B16 melanoma and AG104A fibrosarcoma tumor models evaluating mice bearing tumors on both right flank (primary tumor) and left flank (secondary tumor). In both models, Compound A was administered intratumorally into the primary tumor on days 5, 8, 11 and 15 after tumor inoculation. The secondary tumor was not treated.

AG104Ld (fibrosarcoma) = test: AG104LD PD-L1 antibody-resistant tumor model; assay type: in vivo, B6C3F1 mice; conditions: Compound A 0.5 mg/kg SC, days 4, 7, 11, 14, 18, 21; PD-L1 antibody 200 µg
Description: as §1

[1] = system: IFNα, IL-6, TNFα and other cytokines; test: Plasma cytokine levels in cynomolgus monkeys; assay type: in vivo
Description: Male and female cynomolgus monkeys were assigned to groups and doses of Compound A were administered. Animals were dosed via subcutaneous injection at a volume of 2 mL/kg. The vehicle control article/diluent was phosphate-buffered saline (PBS).
Escalation of Compound A dose levels was tolerated up to 3.0 mg/kg/dose, with findings limited to increased body temperature and elevated IFNα, IL-6, and TNFα cytokine levels. IFNα, TNFα, and IL-6 levels were measured at 3, 6, and 12 hours post-dosing. Dose related but variable changes were observed. […] TNFα levels increased at 3 hours in the 1 mg/kg group. […] The cytokine responses are consistent with the predicted STING pathway activation.

Protein binding in vitro = assay type: in vitro ADME; conditions: human
LL2 (lung cancer) = test: LL2 PD-L1 antibody-resistant tumor model; assay type: in vivo, C57BL/6 mice
Description: as §1

AG104A (fibrosarcoma) = test: AG104A PD-L1 antibody-resistant tumor model; assay type: in vivo, B6C3F1 mice; conditions: Compound A 0.5 mg/kg SC, days 4, 7, 10, 14, 17, 21; PD-L1 antibody 200 µg
Description: as §1

MC38 (colon) = test: MC38 syngeneic tumor model; assay type: in vivo, mouse
syngeneic tumors = test: Combination with PD-L1 antibody in multiple syngeneic tumor models; assay type: in vivo, mouse; conditions: tumors otherwise refractory to immune checkpoint inhibitors
Text: Several of these studies are described in the examples below.

For `Nc1nc2c(ncn2[C@@H]2O[C@@H]3COP(=O)(O)OC4C(O)[C@H](n5cnc6c(N)ncnc65)O[C@@H]4COP(=O)(O)OC2C3OCC(F)(F)F)c(=O)[nH]1` (stereo partly drawn) [Compound A], the “efficacy (tumor growth and survival)” value (4T1 (breast cancer); Compound A 0.5 mg/kg IT, days 5, 8, 11, 15, PD-L1 antibody 200 µg) was “suppressed tumor growth and prolonged mouth survival”, the tumor growth inhibition (4T1 (breast cancer); intratumoral) was “highly effective in inhibiting tumor growth” and the “tumor growth/volume, primary and distant tumors” value (AG104A fibrosarcoma; 0.15 and 0.5 mg/kg, days 5, 8, 11, 15) was “tumor growth was suppressed in both primary and distant tumors; also recorded: significantly decreased”. The survival (AG104A fibrosarcoma) was “survival was significantly prolonged; also recorded: increases the survival”, the “efficacy (tumor growth and survival)” value (AG104Ld (fibrosarcoma)) was “suppressed tumor growth and prolonged mouth survival” and the IFNα levels ([1]; 1 mg/kg and 3 mg/kg groups, 3 and 6 hours post dosing) was “Moderate levels of IFNα”. The TNFα levels ([1]; 1 mg/kg group, 3 hours) was “increased”, the TNFα levels ([1]; 3 mg/kg and 10 mg/kg groups) was “Lower levels of TNFα” and the IL-6 increases ([1]; 3 mg/kg and 10 mg/kg, 12 hours postdose) was “persisted at 12 hours postdose”. For the same molecule, the “cytokine levels, time course” value ([1]; NHP, non-GLP studies of Example 2) was “increases in the first 3-6 hours with return to baseline in most cases by 6-24 hours”, the “plasma IL-6 levels” value ([1]; all groups, 3 and 6 hours post dosing) was “Increases in plasma IL-6 levels” and the fraction unbound (Protein binding in vitro) was 0.511. The “efficacy (tumor growth and survival)” value (LL2 (lung cancer); Compound A 0.5 mg/kg IT, days 5, 10, 14, 17, PD-L1 antibody 200 µg) was “suppressed tumor growth and prolonged mouth survival”, the tumor growth inhibition (LL2 (lung cancer); intratumoral) was “highly effective in inhibiting tumor growth” and the “efficacy (tumor growth and survival)” value (AG104A (fibrosarcoma)) was “suppressed tumor growth and prolonged mouth survival”. For the same molecule, the tumor growth inhibition (MC38 (colon); intratumoral) was “highly effective in inhibiting tumor growth”, the anti-tumor efficacy (MC38 (colon); subcutaneous) was “also effective” and the “responsiveness to PD-L1 antibody” value (syngeneic tumors) was “restored responsiveness to PD-L1 antibody”.
